{"source": "paper PMC8525948", "about": "(Drug Delivery, 2021)", "key": {"[1]": {"assay": "Solubility (loading amount) in 1 g of optimal LBSNENP PC90C10P0"}, "[2]": {"assay": "Droplet size, PDI and appearance of nanoemulsions (LBSNENAs) after self-nanoemulsifying", "type": "physicochemical", "settings": "PC90C10P0 loaded with the named substance at its solubility; 25 °C", "quoted_text": "After self-nanoemulsifying LBSNENPs were placed in double-distilled (DD) water, the average particle size and size distribution of the so-obtained LBSNENAs were measured at a scattering angle of 90° with an N5 submicron particle size analyzer (Beckman Coulter, Brea, CA) at 25 °C, and the intensity autocorrelation of the sample was in a range of 5 × 10^4–10^6. The average diameter and polydispersity index (PDI) of three measurements were reported. […] Each data point is the mean of at least three individual trials."}, "[3]": {"assay": "In vitro release, USP dissolution apparatus 2, simulated gastric fluid pH 1.2", "type": "physicochemical", "settings": "for Dissolution from PC90C10P0 in simulated gastric acid solution: within 0.5 h / plateau at 0.5 h, CPT11 40 mg/g, inhibitors 80 mg/g", "method": "The temperature of the dissolution medium was maintained at 37 ± 0.5 °C. Aliquots of 5 mL of sample were withdrawn for the assay at predetermined time intervals and replaced with the same volume of fresh medium."}, "[4]": {"assay": "In vivo pharmacokinetic study in rabbits: plasma CPT11", "method": "Plasma samples were stored at −80 °C before the high-performance liquid chromatographic (HPLC) analysis as described below. PK parameters are presented as the mean and standard deviation (SD) from individual rabbits in each group and were estimated through a noncompartmental analysis. The terminal elimination rate constant (Ke) was estimated from the slope of the log-linear phase of declining plasma concentrations of an […] versus time graph. The half-life (T1/2) was calculated using the following equation: T1/2 = ln2/Ke. The area under the concentration-time curve from beginning to the last time point (AUC0→last) was calculated using the trapezoidal method. Summation of AUC0→last and the concentration at the last measured point divided by Ke yielded AUC0→∞. Clearance (CL) was calculated by dividing the dose by AUC0→∞, and the volume of distribution (V) was determined by dividing CL by Ke. The absolute bioavailability (FAB) and relative bioavailability (FRB) were respectively calculated according to Equations (1) and (2), respectively (1) FAB=[AUC]poDIV/[AUC]IVDpo×100 where [AUC]po and [AUC]IV are the area under the plasma concentration curves (AUCs) after oral and intravenous administration. DIV and Dpo are the doses after […] administration, respectively. (2) FRB=[AUC]ADB/[AUC]BDA×100\nwhere AUC for a LBSNENPs formulation [AUC]A and the AUC for the same drug in solution [AUC]B after oral administration were compared. DB and DA are the doses for solution and LBSNENPs formulation, respectively.\nAfter centrifugation at 13,000 rpm for 30 min at 4 °C, 1.2 mL of ethyl acetate was collected, and then subjected to evaporation under N2 gas at 50 °C. The mobile phase (200 μL) was added to reconstitute the dried residual, vortexed for 5 min, and then centrifuged at 10^4 rpm and 25 °C for 3 min. The supernatant (180 µL) was collected, and 50 µL was injected into the HPLC system for analysis."}, "[5]": {"settings": "background statement, no reference given; cited from earlier work"}, "[6]": {"settings": "New Zealand white, rabbit, in vivo, iv, 4 mg/kg"}}, "note": "Counter-ions that a name gives are not always drawn.", "data": [{"compound": "silymarin [SM]", "values": [{"measurement": "Solubility (loading amount) in 1 g of PC90C10P0", "setting": "[1]", "value": 130, "unit": "mg/g"}]}, {"compound": "CCc1c2c(nc3ccc(OC(=O)N4CCC(N5CCCCC5)CC4)cc13)-c1cc3c(c(=O)n1C2)COC(=O)[C@]3(O)CC", "note": "[CPT11, Irinotecan hydrochloride]", "values": [{"measurement": "Solubility (loading amount) in 1 g of PC90C10P0", "setting": "[1]", "value": 40, "unit": "mg/g"}, {"measurement": "Mean droplet size of nanoemulsion after self-nanoemulsifying", "setting": "[2]", "value": "157.3 ± 2.08", "unit": "nm"}, {"measurement": "PDI of nanoemulsion after self-nanoemulsifying", "setting": "[2]", "value": "0.665 ± 0.020"}, {"measurement": "Dissolution from PC90C10P0 in simulated gastric acid solution", "setting": "[3]", "value": 100, "unit": "%"}, {"measurement": "FAB of CPT11", "setting": "[4]; I.V. (4 mg/kg), reference group", "value": 100, "unit": "%"}, {"measurement": "AUC(0-inf)", "setting": "[4]; [6]", "value": "287 ± 104", "unit": "ng·h/mL"}, {"measurement": "AUC(0-t)", "setting": "[4]; [6]", "value": "287 ± 104", "unit": "ng·h/mL"}, {"measurement": "Cmax", "setting": "[4]; [6]", "value": "341 ± 98.6", "unit": "ng/mL"}]}, {"compound": "CC1(C)[C@@H](O[C@H]2O[C@H](C(=O)O)[C@@H](O)[C@H](O)[C@H]2O[C@@H]2O[C@H](C(=O)O)[C@@H](O)[C@H](O)[C@H]2O)CC[C@]2(C)[C@H]3C(=O)C=C4[C@@H]5C[C@@](C)(C(=O)O)CC[C@]5(C)CC[C@@]4(C)[C@]3(C)CC[C@@H]12", "note": "[GA, glycyrrhizic acid]", "values": [{"measurement": "Solubility (loading amount) in 1 g of PC90C10P0", "setting": "[1]", "value": 200, "unit": "mg/g"}, {"measurement": "Mean droplet size of nanoemulsion after self-nanoemulsifying", "setting": "[2]", "value": "102.1 ± 0.67", "unit": "nm"}, {"measurement": "PDI of nanoemulsion after self-nanoemulsifying", "setting": "[2]", "value": "0.602 ± 0.031"}, {"measurement": "Dissolution from PC90C10P0 in simulated gastric acid solution", "setting": "[3]", "value": 100, "unit": "%"}]}, {"compound": "CCc1c2c(nc3ccc(O)cc13)-c1cc3c(c(=O)n1C2)COC(=O)[C@]3(O)CC", "note": "[SN-38]", "values": [{"measurement": "Times more active than CPT11", "setting": "[5]", "value": "100–1000 times"}]}, {"compound": "CC1(C)[C@@H](O)CC[C@]2(C)[C@H]3C(=O)C=C4[C@@H]5C[C@@](C)(C(=O)O)CC[C@]5(C)CC[C@@]4(C)[C@]3(C)CC[C@@H]12", "note": "[GLA, glycyrrhetinic acid]", "values": [{"measurement": "Solubility (loading amount) in 1 g of PC90C10P0", "setting": "[1]", "value": 80, "unit": "mg/g"}, {"measurement": "Mean droplet size of nanoemulsion after self-nanoemulsifying", "setting": "[2]", "value": "143.5 ± 0.04", "unit": "nm"}, {"measurement": "PDI of nanoemulsion after self-nanoemulsifying", "setting": "[2]", "value": "0.559 ± 0.063"}, {"measurement": "Dissolution from PC90C10P0 in simulated gastric acid solution", "setting": "[3]", "value": 100, "unit": "%"}]}, {"compound": "O=c1cc(-c2ccccc2)oc2cc(O)c(O)c(O)c12", "note": "[BA, Baicalein]", "values": [{"measurement": "Solubility (loading amount) in 1 g of PC90C10P0", "setting": "[1]", "value": 80, "unit": "mg/g"}, {"measurement": "Mean droplet size of nanoemulsion after self-nanoemulsifying", "setting": "[2]", "value": "171.0 ± 6.52", "unit": "nm"}, {"measurement": "PDI of nanoemulsion after self-nanoemulsifying", "setting": "[2]", "value": "0.863 ± 0.087"}, {"measurement": "Dissolution from PC90C10P0 in simulated gastric acid solution with 1% Tween 80", "setting": "[3]; plateau at 0.5 h, 80 mg/g", "value": "not observed"}, {"measurement": "Dissolution from PC90C10P0 in simulated gastric acid solution", "setting": "[3]", "value": "appeared to be over saturated"}]}]}
